According to paper PMC10010643 (Cancer Chemotherapy and Pharmacology, 2023):

Assay: Safety and tolerability, Part A single ascending-dose phase in healthy participants
Assay type: in vivo, human
Procedure: A further two cohorts were recruited. […] Each individual participated in one treatment period only, with the exception of the food-effect cohort (cohort A3) in which there were two treatment periods separated by at least 7 days washout. Participants resided at the Clinical Research Unit (CRU) from 1 day ahead of dosing (day − 1) to day 3 and returned for a follow-up visit 5–7 days after their final dose. For all cohorts, doses were administered in the fasted state in the morning of day 1 of Treatment Period 1. In the food-effect cohort, doses were given 30 min after the start of a high-fat breakfast (973 calories total: approximately 150 protein calories, 250 carbohydrate calories, and 500–600 fat calories) on day 1 of Treatment Period 2. For cohorts A1 to A5 in Treatment Period 1, dosing occurred such that one pair (one active and one placebo) were dosed at least 24 h before the remaining participants. Continuation to dose those who remained was at the investigator’s discretion. Escalating doses were administered following satisfactory sponsor and investigator review of the safety and tolerability data (up to 48 h post-final dose) and PK data (up to 24 h post-final dose) from the lower dose levels.
Safety and tolerability assessments included adverse event (AE) monitoring, physical examinations, laboratory assessments (hematology, clinical chemistry, and urinalysis), vital signs (blood pressure, pulse rate, and body temperature) and ECG.
No formal statistical assessment was performed for the safety analysis.

[1] = Part A 50 mg (1 x 50 mg), fasted
[2] = Part A 50 mg (10 x 5 mg), fasted

OC[C@H]1O[C@H](Sc2cncc(Br)c2)[C@H](O)[C@@H](n2cc(-c3cc(F)c(F)c(F)c3)nn2)[C@H]1O [GB1211]
1: TEAE Respiratory, thoracic and mediastinal disorders, no. of AEs [1] | TEAE Dry skin, no. of AEs (Part A 50 mg (1 x 50 mg), fed) | TEAE Skin and subcutaneous tissue disorders, no. of AEs (Part A 50 mg (1 x 50 mg), fed) | TEAE Back pain, no. of AEs [2] | TEAE Musculoskeletal and connective tissue disorders, no. of AEs [2] | TEAE Dyspepsia, no. of AEs (Part A 100 mg, fasted) | TEAE Gastrointestinal disorders, no. of AEs (Part A 100 mg, fasted) | TEAE Infections and infestations, no. of AEs (Part A 100 mg, fasted) | TEAE Nasopharyngitis, no. of AEs (Part A 100 mg, fasted)
0 n (%): TEAE Pain, participants [1] | TEAE Rash, participants [1] | TEAE Skin and subcutaneous tissue disorders, participants [1] | TEAE Wound, participants [1] | TEAE Back pain, participants (Part A 50 mg (1 x 50 mg), fed) | TEAE Constipation, participants (Part A 50 mg (1 x 50 mg), fed) | TEAE Cough, participants (Part A 50 mg (1 x 50 mg), fed) | TEAE Decreased appetite, participants (Part A 50 mg (1 x 50 mg), fed) | TEAE Diarrhea, participants (Part A 50 mg (1 x 50 mg), fed) | TEAE Dry mouth, participants (Part A 50 mg (1 x 50 mg), fed) | TEAE Dyspepsia, participants (Part A 50 mg (1 x 50 mg), fed) | TEAE Gastrointestinal disorders, participants (Part A 50 mg (1 x 50 mg), fed) | TEAE General disorders and administration site conditions, participants (Part A 50 mg (1 x 50 mg), fed) | TEAE Headache, participants (Part A 50 mg (1 x 50 mg), fed) | TEAE Infections and infestations, participants (Part A 50 mg (1 x 50 mg), fed) | TEAE Injury, poisoning and procedural complications, participants (Part A 50 mg (1 x 50 mg), fed) | TEAE Medical device site reaction, participants (Part A 50 mg (1 x 50 mg), fed) | TEAE Metabolism and nutrition disorders, participants (Part A 50 mg (1 x 50 mg), fed) | TEAE Musculoskeletal and connective tissue disorders, participants (Part A 50 mg (1 x 50 mg), fed) | TEAE Nasopharyngitis, participants (Part A 50 mg (1 x 50 mg), fed) | TEAE Nervous system disorders, participants (Part A 50 mg (1 x 50 mg), fed) | TEAE Pain, participants (Part A 50 mg (1 x 50 mg), fed) | TEAE Rash, participants (Part A 50 mg (1 x 50 mg), fed) | TEAE Respiratory, thoracic and mediastinal disorders, participants (Part A 50 mg (1 x 50 mg), fed) | TEAE Wound, participants (Part A 50 mg (1 x 50 mg), fed) | TEAE Constipation, participants [2] | TEAE Cough, participants [2] | TEAE Decreased appetite, participants [2] | TEAE Diarrhea, participants [2] | TEAE Dry mouth, participants [2] | TEAE Dry skin, participants [2] | TEAE Dyspepsia, participants [2] | TEAE Gastrointestinal disorders, participants [2] | TEAE General disorders and administration site conditions, participants [2] | TEAE Headache, participants [2] | TEAE Infections and infestations, participants [2] | TEAE Injury, poisoning and procedural complications, participants [2] | TEAE Medical device site reaction, participants [2] | TEAE Metabolism and nutrition disorders, participants [2] | TEAE Nasopharyngitis, participants [2] | TEAE Nervous system disorders, participants [2] | TEAE Pain, participants [2] | TEAE Rash, participants [2] | TEAE Respiratory, thoracic and mediastinal disorders, participants [2] | TEAE Skin and subcutaneous tissue disorders, participants [2] | TEAE Wound, participants [2] | TEAE Back pain, participants (Part A 100 mg, fasted) | TEAE Constipation, participants (Part A 100 mg, fasted) | TEAE Cough, participants (Part A 100 mg, fasted) | TEAE Decreased appetite, participants (Part A 100 mg, fasted) | TEAE Diarrhea, participants (Part A 100 mg, fasted) | TEAE Dry mouth, participants (Part A 100 mg, fasted) | TEAE Dry skin, participants (Part A 100 mg, fasted) | TEAE General disorders and administration site conditions, participants (Part A 100 mg, fasted) | TEAE Headache, participants (Part A 100 mg, fasted) | TEAE Injury, poisoning and procedural complications, participants (Part A 100 mg, fasted) | TEAE Medical device site reaction, participants (Part A 100 mg, fasted) | TEAE Metabolism and nutrition disorders, participants (Part A 100 mg, fasted) | TEAE Musculoskeletal and connective tissue disorders, participants (Part A 100 mg, fasted) | TEAE Nervous system disorders, participants (Part A 100 mg, fasted)
1 (16.7%) n (%): TEAE Respiratory, thoracic and mediastinal disorders, participants [1] | TEAE Dry skin, participants (Part A 50 mg (1 x 50 mg), fed) | TEAE Skin and subcutaneous tissue disorders, participants (Part A 50 mg (1 x 50 mg), fed) | TEAE Back pain, participants [2] | TEAE Musculoskeletal and connective tissue disorders, participants [2] | TEAE Dyspepsia, participants (Part A 100 mg, fasted) | TEAE Gastrointestinal disorders, participants (Part A 100 mg, fasted) | TEAE Infections and infestations, participants (Part A 100 mg, fasted) | TEAE Nasopharyngitis, participants (Part A 100 mg, fasted)
